Laboratory results published in US20020183937A1, “Method for the generation of proteins with new enzymatic function” (priority 2001, published 2002).

How the values were obtained:
PZD2 = molecular target: T1, PZD2 (Escherichia coli, UniProt P0AA25, D27I/F13A/L18H/Y71A); assay: Inhibition of PZD2 catalyzed PNPA hydrolysis; assay type: biochemical, E. coli
T1 construct: made in house; host or cells: E. coli BL21 (DE3), vector pET-11a
From the text: With this in mind, we assayed the inhibitory effects of p-nitrophenol glycerol (PNPG), a highly soluble compound with structural similarity to PNPA.

[1] = Burst phase PNPA hydrolysis assay at high substrate concentration; conditions: 1.6 mM PNPA, 4 μM protein (FIG. 7)
Protocol: PZD2 was dialyzed extensively against 10 mM sodium phosphate buffer at pH 6.95. Kinetic experiments at 22° C. were started by the addition of substrate dissolved in acetonitrile to buffer solution with and without PZD2 (final protein concentration of 4 μM). Protein concentration was determined by UV absorbance in 6M guanidinium hydrochloride assuming an extinction coefficient of 12400 M^−1cm^−1 at 280 nm. Product concentration was determined by the change in absorbance at 400.5 nm assuming an extinction coefficient for deprotonated PNP of 19700 M^31 1cm^−1. Final acetronitrile concentration was 1% for all experiments. The steady state rate of hydrolysis by PZD2 was corrected for the buffer rate. Burst phase hydrolysis assays were performed at a substrate concentration of 1.6 mM. Protein concentration was 4 μM, with the exception of wild type thioredoxin. Wild type thioredoxin was assayed at 50 μM to improve signal to noise and extrapolated to a protein concentration of 4 μM. The dead time for this experiment was approximately 30 seconds.

[2] = Steady state kinetics of PNPA hydrolysis by protozymes; assay type: biochemical; conditions: qualitative statement

T1 sequence (P0AA25 2-109 F13A/L18H/D27I/Y71A): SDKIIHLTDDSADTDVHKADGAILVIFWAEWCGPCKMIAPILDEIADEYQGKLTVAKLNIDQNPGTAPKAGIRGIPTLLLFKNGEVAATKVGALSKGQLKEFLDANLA

With O=[N+]([O-])c1ccc(OP(=O)(O)O)cc1 [p-nitrophenyl phosphate] the inhibition (PZD2; concentrations up to 20 mM) was “did not show detectable inhibition”.

In the case of “Wild type thioredoxin: thioredoxin protein from E. coli, scaffold; wild type sequence, H at position 6 with no binding site mutations”, the “catalytic activity (PNPA hydrolysis)” value [1] is reported as “essentially inactive”, the “enzyme-like activity toward PNPA hydrolysis” value [2] is reported as “essentially catalytically inert” and the “enzyme-like activity toward PNPA hydrolysis” value ([2]; listed as wild type protein) is reported as “does not exhibit enzyme-like activity”.

For p-nitrophenol glycerol [PNPG], the Ki (PZD2; fixed substrate concentration, read-out: K1 (Dixon analysis of inhibition)) was 20 mM and the “mode of inhibition (double reciprocal analysis)” value (PZD2; presence and absence of inhibitor, 10 mM PNPG (FIG. 9)) was “competitive inhibition”.
